Reference: US11279733B2, “Peptide antibiotics” (priority 2017, dated 2022)
In brackets after ≈: the same amount, converted by molar mass. Read-outs that look alike come from different tables or passages of the source. Starred links: 1 amine or outer side, 2 acyl side, 3 side chain; linkers in the order of their positions; H or OH if unused. Positions of bridges follow the written chain, without caps; N, C: chain ends. Non-standard residues stand in square brackets, D forms with d. Residues, ends and D or L forms follow the SMILES beside them. ξ: configuration not given here. *: point of attachment. X10 = CCCCCCC[C@@H](O)CC(=O)N[C@H](CCN)C(=O)NN(CCN[*:2])C(=O)[*:1]; dPhe(4-CN) = N#Cc1ccc(C[C@@H](N)C(=O)O)cc1; Decanoyl(3R-OH) = CCCCCCC[C@@H](O)CC(=O)*; Decanoyl(3ξ-OH) = CCCCCCCC(O)CC(=O)*; dDab = NCC[C@@H](N)C(=O)O; dDap = NC[C@@H](N)C(=O)O; Dab = NCC[C@H](N)C(=O)O

Tests used:
A. baumannii ATCC 19606 = conditions: ATCC 19606
Summary of the method: (§1)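 Mid-log cultures grown in Mueller Hinton broth at 37° C were tested by 2-fold broth microdilution at 5×10^5 CFU/mL final. Compounds were dissolved in water and tested over a final range of 32 to 0.015 μg/mL.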

A. baumannii GN_093 PmxR = conditions: GN 093 PmxR
Summary of the method: as §1

E. coli ATCC 25922 = conditions: ATCC 25922
Summary of the method: as §1

K. pneumoniae ATCC 13883 = conditions: ATCC 13883
Summary of the method: as §1

[1] = test system: K. pneumoniae ATCC 700603, MDR; conditions: ATCC 700603
Summary of the method: as §1

[2] = test system: K. pneumoniae ATCC BAA-2146, NDM-1 pos; conditions: ATCC BAA-2146
Summary of the method: as §1

[3] = test system: K. pneumoniae GN_102 PmxR; conditions: GN 102 PmxR
Summary of the method: as §1

[4] = test system: K. pneumoniae GN_106, PmxR; conditions: GN 106, PmxR
Summary of the method: as §1

P. aeruginosa ATCC 27853 = conditions: ATCC 27853
Summary of the method: as §1

[5] = test system: P. aeruginosa GN_043, PmxR; conditions: for MIC, P. aeruginosa FADDI-PA070, PmxR: strain name as in Table 11
Summary of the method: as §1

[6] = test system: P. aeruginosa GN_105, PmxR; conditions: GN 105, PmxR
Summary of the method: as §1

[7] = test system: S. aureus ATCC 25923, MSSA; conditions: ATCC 25923
Summary of the method: as §1

in vitro = conditions: human
Experimental: Cytotoxicity of the synthesised peptides was evaluated by comparison with commercially available colistin (polymyxin E), polymyxin B (Sigma chemical Co., St. Louis, Mo., U.S.A.) and synthetic octapeptin C4 by conducting lactate dehydrogenase (LDH) assay. CC50 values calculated based on curve fitting of dose dependent inhibition of cell growth represented the cytotoxicity of the peptide. Human kidney 2 (HK2) cells were seeded as 2000 cells per well in a 384 well cell culture plate in a final volume of 20 μL in DMEM/F12 medium (Invitrogen #11330057), in which 10% of FBS was added. Cells were incubated for 24 hours at 37° C., 5% CO2 to allow cells to attach to the plates. Similar conditions were employed for HEK293 and HepG2 cytotoxicity assays.
Cytotoxicity to HEK293 and HepG2 cells was determined using the resazurin assay (McMillian, M. K.; Li, L.; Parker, J. B.; Patel, L.; Zhong, Z.; Gunnett, J. W.; Powers, W. J.; Johnson, M. D. An improved resazurin-based cytotoxicity assay for hepatic cells; Cell Biol. Toxicol. 2002, 18, 157-173; O'Brien, J.; Wilson, I.; Orton, T.; Pognan, F. Investigation of the Alamar Blue (resazurin) fluorescent dye for the assessment of mammalian cell cytotoxicity. Eur. J. Biochem. 2000, 267, 5421-5426). In brief, HEK293 and HepG2 cells were seeded at 4000 cells/well in black-wall, clear-bottom 384-well plates (Corning, Australia) and incubated for 24 h at 37° C., 5% CO2. Compounds were then added into each well. After 24 h incubation, 5 μM resazurin was added per well and incubated at 37° C. for 2 h. Fluorescence intensity was then read using a Polarstar Omega with excitation/emission 560/590. The data was then analyzed using GraphPad Prism 6 software. CC50 values were determined using GraphPad Prism 6 software (Inc. La Jolla, Calif.).

SMILES	MIC A. baumannii ATCC 19606 (A. baumannii ATCC 19606)	MIC A. baumannii GN_093 PmxR (A. baumannii GN_093 PmxR)	MIC E. coli ATCC 25922 (E. coli ATCC 25922)	MIC K. pneumoniae ATCC 13883 (K. pneumoniae ATCC 13883)	MIC K. pneumoniae ATCC 700603, MDR [1]	MIC K. pneumoniae ATCC BAA-2146, NDM-1 pos [2]	MIC K. pneumoniae GN_102 PmxR [3]	MIC K. pneumoniae GN_106, PmxR [4]	MIC P. aeruginosa ATCC 27853 (P. aeruginosa ATCC 27853)	MIC P. aeruginosa GN_105, PmxR [6]	MIC S. aureus ATCC 25923, MSSA [7]	CC50 at 24 h (in vitro)	other results
CCCCCCC[C@@H](O)CC(=O)N[C@H](CCN)C(=O)N[C@H]1CCNC(=O)[C@H](Cc2c[nH]c3ccccc23)NC(=O)[C@H](CCN)NC(=O)[C@H](CCN)NC(=O)[C@H](CC(C)C)NC(=O)[C@@H](Cc2ccc(C#N)cc2)NC(=O)[C@H](CCN)NC1=O [compound 8105, 3(R)OH-nC9CO-D-Dab-cyc[L-Dab-L-Dab-L-Dab-D-Phe(4-CN)-L-Leu-L-Dab-L-Dab-L-Trp]] ({Decanoyl(3R-OH)}-[dDab][Dab][Dab][dPhe(4-CN)]L[Dab][Dab]W; lactam 2-C)	8 µg/mL (≈ 7 µM)	16 µg/mL (≈ 14 µM)	4 µg/mL (≈ 3.5 µM)	8 µg/mL (≈ 7 µM)	8 µg/mL (≈ 7 µM)	4 µg/mL (≈ 3.5 µM)	4 µg/mL (≈ 3.5 µM)	8 µg/mL (≈ 7 µM)	2 µg/mL (≈ 1.75 µM)	2 µg/mL (≈ 1.75 µM)	4 µg/mL (≈ 3.5 µM)	107 µM	MIC P. aeruginosa GN_043, PmxR ([5]; polymyxin-resistant): 2 µg/mL (≈ 1.75 µM)
CCCCCCC[C@@H](O)CC(=O)N[C@H](CCN)C(=O)N[C@H]1CCNC(=O)N(CC(C)C)NC(=O)[C@H](CCN)NC(=O)[C@H](CCN)NC(=O)[C@H](CC(C)C)NC(=O)[C@@H](Cc2ccccc2)NC(=O)[C@@H](CCN)NC1=O [compound 9416, 3(R)OH-nC9CO-D-Dab-cyc[L-Dab-L-Dab-D-Phe-L-Leu-L-Dab-L-Dab-(aza-Leu)]]	>32 µg/mL	–	16 µg/mL (≈ 15.3 µM)	16 µg/mL (≈ 15.3 µM)	16 µg/mL (≈ 15.3 µM)	16 µg/mL (≈ 15.3 µM)	–	–	4 µg/mL (≈ 3.83 µM)	–	32 µg/mL (≈ 30.6 µM)	> 300 µM	MIC A. baumannii Cl Ptyela 10073 4512:2, PmxR (A. baumannii GN_093 PmxR): >32 µg/mL; MIC K. pneumoniae Cl Koprana 10065 0661:1 PmxR [3]: >32 µg/mL; MIC K. pneumoniae Cl 183-16357-20352, PmxR [4]: >32 µg/mL; MIC, P. aeruginosa FADDI-PA070, PmxR [5]: >32 µg/mL; MIC P. aeruginosa PA9704, PmxR [6]: >32 µg/mL
CC(=O)N[C@H](CN)C(=O)N[C@H]1CCNC(=O)[C@H](CC(C)C)NC(=O)[C@H](CCN)NC(=O)[C@H](CCN)NC(=O)[C@H](CC(C)C)NC(=O)[C@@H](Cc2ccccc2)NC(=O)[C@H](CCN)NC1=O [compound 8980, Ac-D-Dap-cyc[L-Dab-L-Dab-D-Phe-L-Leu-L-Dab-L-Dab-L-Leu]] (Ac-[dDap][Dab][Dab][dF]L[Dab][Dab]L; lactam 2-C)	–	>32 µg/mL	–	–	–	–	>32 µg/mL	>32 µg/mL	–	>32 µg/mL	–	> 300 µM	MIC, A. baumannii ATCC 19606 (A. baumannii ATCC 19606): >32 µg/mL; MIC, E. coli ATCC 25922 (E. coli ATCC 25922): >32 µg/mL; MIC, K. pneumoniae ATCC 13883 (K. pneumoniae ATCC 13883): >32 µg/mL; MIC, K. pneumoniae ATCC 700603, MDR [1]: 32 µg/mL (≈ 35.5 µM); MIC, K. pneumoniae ATCC BAA-2146, NDM-1 pos [2]: 32 µg/mL (≈ 35.5 µM); MIC, P. aeruginosa ATCC 27853 (P. aeruginosa ATCC 27853): 4 µg/mL (≈ 4.43 µM); MIC P. aeruginosa GN_043, PmxR ([5]; Table 6, polymyxin-resistant): >32 µg/mL; MIC, S. aureus ATCC 25923, MSSA [7]: >32 µg/mL
CCCCCCC[C@@H](O)CC(=O)N[C@H](CCN)C(=O)NN1CCNC(=O)[C@H](CC(C)C)NC(=O)[C@H](CCN)NC(=O)[C@H](CCN)NC(=O)[C@H](CC(C)C)NC(=O)[C@@H](Cc2ccccc2)NC(=O)[C@H](CCN)NC1=O [compound 9417, 3(R)OH-nC9CO-D-Dab-cyc[(aza-Dab)-L-Dab-D-Phe-L-Leu-L-Dab-L-Dab-L-Leu]] ([Dab][dF]L[Dab][Dab]L; linker N-C via X10)	>32 µg/mL	–	>32 µg/mL	>32 µg/mL	>32 µg/mL	>32 µg/mL	–	–	16 µg/mL (≈ 15.3 µM)	–	8 µg/mL (≈ 7.65 µM)	> 300 µM	MIC A. baumannii Cl Ptyela 10073 4512:2, PmxR (A. baumannii GN_093 PmxR): >32 µg/mL; MIC K. pneumoniae Cl Koprana 10065 0661:1 PmxR [3]: >32 µg/mL; MIC K. pneumoniae Cl 183-16357-20352, PmxR [4]: >32 µg/mL; MIC, P. aeruginosa FADDI-PA070, PmxR [5]: >32 µg/mL; MIC P. aeruginosa PA9704, PmxR [6]: >32 µg/mL
CCCCCCCC(O)CC(=O)N[C@H](CCN)C(=O)N[C@H]1CCNC(=O)[C@H](CC(C)C)NC(=O)[C@H](CCN)NC(=O)[C@H](CCN)NC(=O)[C@H](CC(C)C)NC(=O)[C@@H](Cc2ccccc2)NC(=O)[C@H](CCN)NC1=O (stereo partly drawn) [compound 5013, 3OH-nC9CO-D-Dab-cyc[L-Dab-L-Dab-D-Phe-L-Leu-L-Dab-L-Dab-L-Leu]] ({Decanoyl(3ξ-OH)}-[dDab][Dab][Dab][dF]L[Dab][Dab]L; lactam 2-C)	16 µg/mL (≈ 15.3 µM)	8 µg/mL (≈ 7.66 µM)	8 µg/mL (≈ 7.66 µM)	4 µg/mL (≈ 3.83 µM)	8 µg/mL (≈ 7.66 µM)	16 µg/mL (≈ 15.3 µM)	4 µg/mL (≈ 3.83 µM)	16 µg/mL (≈ 15.3 µM)	2 µg/mL (≈ 1.92 µM)	2 µg/mL (≈ 1.92 µM)	16 µg/mL (≈ 15.3 µM)	> 300 µM	MIC P. aeruginosa GN_043, PmxR [5]: 2 µg/mL (≈ 1.92 µM)
CCCCCCC[C@@H](O)CC(=O)N[C@H](CCN)C(=O)N[C@H]1CCNC(=O)[C@H](CC(C)C)NC(=O)[C@H](CCCCN)NC(=O)[C@H](CCN)NC(=O)[C@H](CC(C)C)NC(=O)[C@@H](Cc2ccccc2)NC(=O)[C@H](CCN)NC1=O [compound 989, 3(R)OH-nC9CO-D-Dab-cyc[L-Dab-L-Dab-D-Phe-L-Leu-L-Dab-L-Lys-L-Leu]] ({Decanoyl(3R-OH)}-[dDab][Dab][Dab][dF]L[Dab]KL; lactam 2-C)	8 µg/mL (≈ 7.46 µM)	16 µg/mL (≈ 14.9 µM)	4 µg/mL (≈ 3.73 µM)	4 µg/mL (≈ 3.73 µM)	2 µg/mL (≈ 1.86 µM)	2 µg/mL (≈ 1.86 µM)	4 µg/mL (≈ 3.73 µM)	4 µg/mL (≈ 3.73 µM)	2 µg/mL (≈ 1.86 µM)	2 µg/mL (≈ 1.86 µM)	16 µg/mL (≈ 14.9 µM)	> 300 µM	MIC P. aeruginosa GN_043, PmxR ([5]; polymyxin-resistant): 2 µg/mL (≈ 1.86 µM)
CCCCCCC[C@@H](O)CC(=O)N[C@H](CN)C(=O)N[C@H]1CCNC(=O)[C@H](CC(C)C)NC(=O)[C@H](CCN)NC(=O)[C@H](CCN)NC(=O)[C@H](C(C)C)NC(=O)[C@@H](Cc2ccccc2)NC(=O)[C@H](CCN)NC1=O [compound 9291, 3(R)OH-nC9CO-D-Dap-cyc[L-Dab-L-Dab-D-Phe-L-Val-L-Dab-L-Dab-L-Leu]] ({Decanoyl(3R-OH)}-[dDap][Dab][Dab][dF]V[Dab][Dab]L; lactam 2-C)	>32 µg/mL	32 µg/mL (≈ 31.5 µM)	2 µg/mL (≈ 1.97 µM)	8 µg/mL (≈ 7.87 µM)	8 µg/mL (≈ 7.87 µM)	8 µg/mL (≈ 7.87 µM)	32 µg/mL (≈ 31.5 µM)	32 µg/mL (≈ 31.5 µM)	2 µg/mL (≈ 1.97 µM)	32 µg/mL (≈ 31.5 µM)	–	> 300 µM	MIC P. aeruginosa GN_043, PmxR ([5]; P. aeruginosa GN_043, PmxR): 2 µg/mL (≈ 1.97 µM)
